Test results as given in ChEMBL document CHEMBL1201862, “PubChem BioAssay data set” (2004).
Values belong to the compound of their own block, whether it stands above or below them. Activity calls are given as the source filed them.

Assays:
Format in all cases: functional
[1] = target: T1, Neuropeptides B/W receptor type 1 (Homo sapiens, UniProt P48145); assay: human NPBW1 receptor blockade, IC50 – cell-based, fluorescence, dose response, set 5, late-stage follow-up (AID 588566)
T1 sequence (P48145 whole entry): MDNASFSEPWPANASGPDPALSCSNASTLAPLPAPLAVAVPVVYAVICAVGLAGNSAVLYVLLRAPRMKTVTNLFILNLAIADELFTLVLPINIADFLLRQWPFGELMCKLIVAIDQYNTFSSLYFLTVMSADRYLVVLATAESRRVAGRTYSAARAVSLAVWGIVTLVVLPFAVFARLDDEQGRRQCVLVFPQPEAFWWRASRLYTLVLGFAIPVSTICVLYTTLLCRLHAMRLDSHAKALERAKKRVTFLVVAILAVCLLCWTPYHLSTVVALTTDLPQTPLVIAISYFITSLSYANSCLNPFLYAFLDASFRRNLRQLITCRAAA

[2] = target: Melanin-concentrating hormone receptor 1 (Homo sapiens, UniProt Q99705); assay: Late-stage fluorescence-based counterscreen for antagonists of the G-protein coupled receptor 7 (GPR7): cell-based dose response assay to identify antagonists of the melanin-concentrating hormone receptor 1 (MCHR1) Set 5.
[3] = target: Inhibitor of nuclear factor kappa-B kinase subunit epsilon (Homo sapiens, UniProt Q14164); assay: Navigating the Kinome. Panel member name: IKBKE
[4] = target: Insulin-like growth factor 1 receptor (Homo sapiens, UniProt P08069); assay: Navigating the Kinome. Panel member name: IGF1R
[5] = target: cAMP-dependent protein kinase catalytic subunit alpha (Homo sapiens, UniProt P17612)
[6] = target: Calcium/calmodulin-dependent protein kinase type II subunit alpha (Homo sapiens, UniProt Q9UQM7); assay: Navigating the Kinome. Panel member name: CAMK2A
[7] = target: Mitogen-activated protein kinase 8 (Homo sapiens, UniProt P45983);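 also: value comes from one member of a kinome-wide kinase profiling panel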
[8] = target: Proto-oncogene tyrosine-protein kinase receptor Ret (Homo sapiens, UniProt P07949);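 also: measured within a kinome-wide profiling panel, RET as the panel member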
[9] = target: Mitogen-activated protein kinase kinase kinase kinase 2 (Homo sapiens, UniProt Q12851);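 also: measured as one member of a kinome-wide kinase panel, with MAP4K2 as the panel entry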
[10] = target: Mitogen-activated protein kinase 9 (Homo sapiens, UniProt P45984);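 also: value from a kinome panel profiling assay, MAPK9 panel entry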
[11] = target: ALK tyrosine kinase receptor (Homo sapiens, UniProt Q9UM73);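 also: ALK tested as one member of a kinase panel screen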
[12] = target: Dual specificity tyrosine-phosphorylation-regulated kinase 1A (Homo sapiens, UniProt Q13627);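 also: measured against DYRK1A as one member of a broad kinome profiling panel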
[13] = target: Receptor-type tyrosine-protein kinase FLT3 (Homo sapiens, UniProt P36888);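 also: FLT3 was tested as one member of a kinome-wide kinase panel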
[14] = target: Leukocyte tyrosine kinase receptor (Homo sapiens, UniProt P29376); assay: Navigating the Kinome. Panel member name: LTK
Activin receptor type-1 = Activin receptor type-1 (Homo sapiens, UniProt Q04771); assay: Navigating the Kinome. Panel member name: ACVR1
LIM domain kinase 1 = LIM domain kinase 1 (Homo sapiens, UniProt P53667); assay: Navigating the Kinome. Panel member name: LIMK1
[15] = target: Cyclin-dependent kinase 8 (Homo sapiens, UniProt P49336); assay: Navigating the Kinome. Panel member name: CDK8
[16] = target: Serine/threonine-protein kinase TAO1 (Homo sapiens, UniProt Q7L7X3)
[17] = target: Tyrosine-protein kinase receptor TYRO3 (Homo sapiens, UniProt Q06418);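 also: TYRO3 value obtained as one member of a kinome-wide profiling panel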
[18] = target: Dual specificity protein kinase CLK2 (Homo sapiens, UniProt P49760)
[19] = target: Cyclin-dependent kinase 5 (Homo sapiens, UniProt Q00535);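 also: CDK5 measured as one member of a kinase profiling panel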
[20] = target: Vascular endothelial growth factor receptor 1 (Homo sapiens, UniProt P17948);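 also: measured within a kinome-wide profiling panel, FLT1 as the panel member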
[21] = target: cAMP-dependent protein kinase catalytic subunit PRKX (Homo sapiens, UniProt P51817)
[22] = target: BDNF/NT-3 growth factors receptor (Homo sapiens, UniProt Q16620);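 also: NTRK2 measured as one member of a broad kinome-wide kinase profiling panel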
[23] = target: Death-associated protein kinase 3 (Homo sapiens, UniProt O43293);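 also: measured as one member of a kinome-wide profiling panel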
[24] = target: Dual specificity mitogen-activated protein kinase kinase 2 (Homo sapiens, UniProt P36507); assay: Navigating the Kinome. Panel member name: MAP2K2
[25] = target: Serine/threonine-protein kinase Nek2 (Homo sapiens, UniProt P51955)
[26] = target: Mitogen-activated protein kinase 14 (Homo sapiens, UniProt Q16539);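 also: part of a kinome-wide panel, MAPK14 entry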
[27] = target: Platelet-derived growth factor receptor alpha (Homo sapiens, UniProt P16234); assay: Navigating the Kinome. Panel member name: PDGFRA
[28] = target: Macrophage-stimulating protein receptor (Homo sapiens, UniProt Q04912); assay: Navigating the Kinome. Panel member name: MST1R
[29] = target: Cyclin-dependent kinase 7 (Homo sapiens, UniProt P50613);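 also: value comes from a kinome-wide kinase profiling panel in which CDK7 is one member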
[30] = target: Tyrosine-protein kinase ABL1 (Homo sapiens, UniProt P00519)
[31] = target: Serine/threonine-protein kinase D3 (Homo sapiens, UniProt O94806);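 also: determined within a kinase panel screen, with PRKCN as the panel member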
[32] = target: Serine/threonine-protein kinase PAK 4 (Homo sapiens, UniProt O96013);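 also: value obtained within a kinome profiling panel in which PAK4 was one of the panel members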
[33] = target: Serine/threonine-protein kinase pim-1 (Homo sapiens, UniProt P11309)
[34] = target: G protein-coupled receptor kinase 5 (Homo sapiens, UniProt P34947); assay: Navigating the Kinome. Panel member name: GPRK5
[35] = target: Dual specificity protein kinase CLK4 (Homo sapiens, UniProt Q9HAZ1)
[36] = target: Serine/threonine-protein kinase TBK1 (Homo sapiens, UniProt Q9UHD2); assay: Navigating the Kinome. Panel member name: TBK1
[37] = target: Hepatocyte growth factor receptor (Homo sapiens, UniProt P08581);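 also: kinase panel profiling across the kinome, with MET as the panel member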
[38] = target: Tyrosine-protein kinase JAK3 (Homo sapiens, UniProt P52333)
[39] = target: Leucine-rich repeat serine/threonine-protein kinase 2 (Homo sapiens, UniProt Q5S007);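 also: value from a broad kinome-wide panel profiling study in which LRRK2 was one of the kinases tested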
Aurora kinase B = Aurora kinase B (Homo sapiens, UniProt Q96GD4)
[40] = target: Protein kinase C theta type (Homo sapiens, UniProt Q04759); assay: Navigating the Kinome. Panel member name: PRKCQ
[41] = target: Rho-associated protein kinase 1 (Homo sapiens, UniProt Q13464);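 also: measured within a broad kinome-wide panel profiling many kinases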
[42] = target: Glycogen synthase kinase-3 beta (Homo sapiens, UniProt P49841);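 also: value comes from a broad kinome profiling panel, with GSK3B as the panel member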
[43] = target: Cyclin-dependent kinase 9 (Homo sapiens, UniProt P50750);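 also: value from the CDK9 entry of a kinome-spanning kinase panel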
[44] = target: Fibroblast growth factor receptor 1 (Homo sapiens, UniProt P11362)
Activated CDC42 kinase 1 = Activated CDC42 kinase 1 (Homo sapiens, UniProt Q07912); assay: Navigating the Kinome. Panel member name: ACK1
[45] = target: Dual specificity mitogen-activated protein kinase kinase 1 (Homo sapiens, UniProt Q02750); assay: Navigating the Kinome. Panel member name: MAP2K1
[46] = target: Glycogen synthase kinase-3 alpha (Homo sapiens, UniProt P49840);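 also: GSK3A result taken from a broad kinome-wide kinase panel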
[47] = target: Vascular endothelial growth factor receptor 2 (Homo sapiens, UniProt P35968)
[48] = target: Mitogen-activated protein kinase kinase kinase kinase 4 (Homo sapiens, UniProt O95819)
[49] = target: Ribosomal protein S6 kinase alpha-3 (Homo sapiens, UniProt P51812);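 also: measured within a kinome-wide profiling panel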
Aurora kinase A = Aurora kinase A (Homo sapiens, UniProt O14965);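 also: value from the Navigating the Kinome kinase panel profiling, panel entry STK6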
[50] = target: Macrophage colony-stimulating factor 1 receptor (Homo sapiens, UniProt P07333);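 also: value comes from the Navigating the Kinome screening panel, CSF1R member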
[51] = target: Tyrosine-protein kinase JAK2 (Homo sapiens, UniProt O60674);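 also: JAK2 tested as one member of a kinase panel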
[52] = target: Tyrosine-protein kinase Fyn (Homo sapiens, UniProt P06241)
[53] = target: 5'-AMP-activated protein kinase catalytic subunit alpha-1 (Homo sapiens, UniProt Q13131)
[54] = target: Serine/threonine-protein kinase Chk1 (Homo sapiens, UniProt O14757);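 also: measured as one member of a kinome-wide kinase profiling panel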
[55] = target: Dual specificity tyrosine-phosphorylation-regulated kinase 1B (Homo sapiens, UniProt Q9Y463); assay: Navigating the Kinome. Panel member name: DYRK1B
[56] = target: Casein kinase I isoform alpha (Homo sapiens, UniProt P48729)
[57] = target: Multidrug resistance protein CDR2 (Candida albicans (strain SC5314 / ATCC MYA-2876) (Yeast), UniProt P78595); assay: inhibition of Nile Red efflux via Candida CDR2 – S. cerevisiae AD1-8u, singleplex, Cherry Pick1 hits, dose response (AID 588604)

Chain of Inhibitor of nuclear factor kappa-B kinase subunit epsilon (Q14164 whole entry): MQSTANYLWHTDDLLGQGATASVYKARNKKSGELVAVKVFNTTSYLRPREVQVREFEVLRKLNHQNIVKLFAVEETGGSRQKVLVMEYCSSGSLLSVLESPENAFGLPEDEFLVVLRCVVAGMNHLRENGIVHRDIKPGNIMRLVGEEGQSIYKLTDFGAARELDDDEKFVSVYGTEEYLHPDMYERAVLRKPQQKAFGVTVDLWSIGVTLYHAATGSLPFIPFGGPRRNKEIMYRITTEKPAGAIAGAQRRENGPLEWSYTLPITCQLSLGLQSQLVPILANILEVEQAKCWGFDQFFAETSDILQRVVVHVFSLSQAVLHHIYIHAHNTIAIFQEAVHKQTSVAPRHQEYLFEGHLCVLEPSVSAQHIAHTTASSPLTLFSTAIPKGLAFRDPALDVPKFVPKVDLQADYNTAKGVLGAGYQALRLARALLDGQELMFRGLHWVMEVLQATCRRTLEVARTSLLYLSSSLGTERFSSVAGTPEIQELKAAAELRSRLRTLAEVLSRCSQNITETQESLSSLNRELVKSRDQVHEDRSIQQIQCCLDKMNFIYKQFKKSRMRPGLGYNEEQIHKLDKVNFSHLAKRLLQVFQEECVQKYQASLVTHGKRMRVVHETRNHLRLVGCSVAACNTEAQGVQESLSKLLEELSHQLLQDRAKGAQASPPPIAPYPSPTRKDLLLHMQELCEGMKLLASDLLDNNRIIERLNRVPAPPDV
Chain of LIM domain kinase 1 (P53667 whole entry, the tested form may be a part): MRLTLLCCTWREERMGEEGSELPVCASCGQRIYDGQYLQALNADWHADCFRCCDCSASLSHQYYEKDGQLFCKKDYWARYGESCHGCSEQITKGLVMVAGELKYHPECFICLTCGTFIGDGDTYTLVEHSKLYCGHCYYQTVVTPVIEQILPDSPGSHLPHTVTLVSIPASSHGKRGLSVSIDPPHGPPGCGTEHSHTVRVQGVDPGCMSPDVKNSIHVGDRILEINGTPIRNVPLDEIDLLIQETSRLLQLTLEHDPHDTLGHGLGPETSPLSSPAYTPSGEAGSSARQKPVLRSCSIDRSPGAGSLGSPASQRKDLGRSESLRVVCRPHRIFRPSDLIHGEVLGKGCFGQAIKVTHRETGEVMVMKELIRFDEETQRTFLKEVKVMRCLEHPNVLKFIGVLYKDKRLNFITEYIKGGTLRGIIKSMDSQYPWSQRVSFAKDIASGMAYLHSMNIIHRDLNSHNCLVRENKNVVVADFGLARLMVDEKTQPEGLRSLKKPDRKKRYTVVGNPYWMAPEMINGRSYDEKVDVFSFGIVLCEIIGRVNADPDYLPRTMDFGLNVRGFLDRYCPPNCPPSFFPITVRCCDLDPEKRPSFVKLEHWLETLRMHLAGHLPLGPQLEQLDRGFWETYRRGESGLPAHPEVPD
Chain of Rho-associated protein kinase 1 (Q13464 whole entry): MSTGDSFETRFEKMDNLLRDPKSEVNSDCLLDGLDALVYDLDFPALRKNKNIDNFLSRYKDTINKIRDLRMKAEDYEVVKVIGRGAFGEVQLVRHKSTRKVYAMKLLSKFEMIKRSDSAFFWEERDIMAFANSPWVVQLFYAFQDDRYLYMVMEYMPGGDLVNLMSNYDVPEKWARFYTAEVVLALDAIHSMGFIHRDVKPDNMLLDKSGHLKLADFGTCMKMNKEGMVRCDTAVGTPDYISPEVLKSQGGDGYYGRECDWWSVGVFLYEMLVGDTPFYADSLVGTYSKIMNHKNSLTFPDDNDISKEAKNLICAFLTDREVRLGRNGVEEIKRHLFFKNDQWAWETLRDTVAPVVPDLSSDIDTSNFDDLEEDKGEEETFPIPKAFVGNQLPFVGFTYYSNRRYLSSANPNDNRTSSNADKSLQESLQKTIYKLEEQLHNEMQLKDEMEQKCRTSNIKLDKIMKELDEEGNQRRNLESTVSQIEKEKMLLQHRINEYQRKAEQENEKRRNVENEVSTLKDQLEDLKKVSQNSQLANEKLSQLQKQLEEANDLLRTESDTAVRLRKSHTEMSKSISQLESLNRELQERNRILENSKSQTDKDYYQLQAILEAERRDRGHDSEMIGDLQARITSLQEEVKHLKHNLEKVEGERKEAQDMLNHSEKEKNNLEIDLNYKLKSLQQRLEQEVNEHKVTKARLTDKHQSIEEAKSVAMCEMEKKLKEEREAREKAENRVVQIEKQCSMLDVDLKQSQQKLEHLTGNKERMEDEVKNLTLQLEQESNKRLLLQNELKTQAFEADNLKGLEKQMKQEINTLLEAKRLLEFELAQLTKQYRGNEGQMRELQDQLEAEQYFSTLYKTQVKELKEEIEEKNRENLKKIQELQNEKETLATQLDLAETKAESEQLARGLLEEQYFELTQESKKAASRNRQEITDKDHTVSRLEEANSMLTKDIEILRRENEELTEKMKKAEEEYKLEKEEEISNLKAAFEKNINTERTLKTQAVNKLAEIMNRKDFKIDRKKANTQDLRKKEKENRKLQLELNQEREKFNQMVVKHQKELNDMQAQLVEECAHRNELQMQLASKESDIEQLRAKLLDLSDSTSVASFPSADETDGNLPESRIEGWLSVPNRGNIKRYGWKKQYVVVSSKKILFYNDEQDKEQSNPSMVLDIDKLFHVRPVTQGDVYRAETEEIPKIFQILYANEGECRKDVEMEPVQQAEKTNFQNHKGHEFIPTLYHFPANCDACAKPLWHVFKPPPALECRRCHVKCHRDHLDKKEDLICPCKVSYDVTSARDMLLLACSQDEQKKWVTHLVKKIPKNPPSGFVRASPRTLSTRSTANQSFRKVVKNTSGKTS
Chain of Casein kinase I isoform alpha (P48729 whole entry, canonical isoform): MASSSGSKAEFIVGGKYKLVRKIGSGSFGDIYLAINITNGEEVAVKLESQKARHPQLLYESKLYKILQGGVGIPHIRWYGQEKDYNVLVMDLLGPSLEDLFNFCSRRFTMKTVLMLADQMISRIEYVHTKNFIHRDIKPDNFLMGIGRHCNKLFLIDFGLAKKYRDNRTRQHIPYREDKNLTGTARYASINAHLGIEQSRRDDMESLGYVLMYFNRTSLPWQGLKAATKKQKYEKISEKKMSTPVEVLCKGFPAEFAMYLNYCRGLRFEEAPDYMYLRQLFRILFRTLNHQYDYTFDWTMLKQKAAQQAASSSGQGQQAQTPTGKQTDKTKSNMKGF
Chain of BDNF/NT-3 growth factors receptor (Q16620 whole entry): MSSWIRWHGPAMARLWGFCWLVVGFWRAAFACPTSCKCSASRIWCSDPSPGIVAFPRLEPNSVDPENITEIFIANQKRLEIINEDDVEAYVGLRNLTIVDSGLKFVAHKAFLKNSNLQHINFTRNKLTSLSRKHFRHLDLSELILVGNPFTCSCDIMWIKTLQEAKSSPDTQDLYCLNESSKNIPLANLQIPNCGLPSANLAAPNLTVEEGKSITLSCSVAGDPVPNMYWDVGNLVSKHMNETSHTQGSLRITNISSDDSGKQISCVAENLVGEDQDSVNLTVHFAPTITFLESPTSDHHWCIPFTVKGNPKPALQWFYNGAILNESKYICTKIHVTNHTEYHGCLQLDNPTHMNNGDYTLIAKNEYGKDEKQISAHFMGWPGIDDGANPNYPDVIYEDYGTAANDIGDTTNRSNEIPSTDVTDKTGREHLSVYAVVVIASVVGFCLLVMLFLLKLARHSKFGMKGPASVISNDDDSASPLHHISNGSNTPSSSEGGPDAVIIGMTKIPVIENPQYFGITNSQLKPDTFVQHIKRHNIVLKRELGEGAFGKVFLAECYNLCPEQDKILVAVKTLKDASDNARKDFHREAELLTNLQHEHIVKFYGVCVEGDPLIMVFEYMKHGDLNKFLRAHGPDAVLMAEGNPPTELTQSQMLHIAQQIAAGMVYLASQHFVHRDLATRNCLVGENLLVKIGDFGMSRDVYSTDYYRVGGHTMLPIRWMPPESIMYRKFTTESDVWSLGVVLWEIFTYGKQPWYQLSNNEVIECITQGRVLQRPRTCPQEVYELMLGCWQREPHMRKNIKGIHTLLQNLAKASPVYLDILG
Chain of Cyclin-dependent kinase 8 (P49336 whole entry): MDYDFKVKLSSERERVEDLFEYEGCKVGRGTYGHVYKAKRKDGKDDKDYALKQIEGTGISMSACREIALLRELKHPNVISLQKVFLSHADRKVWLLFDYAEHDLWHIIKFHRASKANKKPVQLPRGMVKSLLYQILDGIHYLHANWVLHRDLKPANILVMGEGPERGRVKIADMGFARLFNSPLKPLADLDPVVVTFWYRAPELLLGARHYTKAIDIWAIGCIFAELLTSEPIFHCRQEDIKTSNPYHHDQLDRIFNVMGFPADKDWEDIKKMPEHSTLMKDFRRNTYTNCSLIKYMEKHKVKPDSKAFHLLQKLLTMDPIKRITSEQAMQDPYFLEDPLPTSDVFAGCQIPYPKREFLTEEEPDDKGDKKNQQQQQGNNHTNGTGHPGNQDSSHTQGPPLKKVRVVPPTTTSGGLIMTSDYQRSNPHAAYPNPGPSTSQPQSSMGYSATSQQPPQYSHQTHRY
Chain of Death-associated protein kinase 3 (O43293 whole entry): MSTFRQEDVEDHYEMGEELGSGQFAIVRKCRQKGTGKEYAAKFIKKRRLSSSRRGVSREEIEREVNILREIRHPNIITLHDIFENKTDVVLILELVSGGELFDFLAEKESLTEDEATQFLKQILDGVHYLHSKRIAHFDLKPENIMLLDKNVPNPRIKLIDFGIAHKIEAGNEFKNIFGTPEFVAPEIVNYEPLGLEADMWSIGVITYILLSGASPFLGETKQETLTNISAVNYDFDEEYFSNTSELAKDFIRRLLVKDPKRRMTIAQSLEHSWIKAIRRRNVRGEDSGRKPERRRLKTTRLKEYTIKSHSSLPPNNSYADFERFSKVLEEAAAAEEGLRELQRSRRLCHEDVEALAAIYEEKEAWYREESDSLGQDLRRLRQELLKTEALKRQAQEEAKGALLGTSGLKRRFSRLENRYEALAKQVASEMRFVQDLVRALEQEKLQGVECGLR

- IC50 [1]: 6.18 µM (active)
- IC50 [2]: 5.86 µM (active)
Compound: COc1ccc([S+]([O-])c2c(Cl)cnn(Cc3cccc4ccccc34)c2=O)cc1 (configuration not stated)

- Ki [3]: > 3.16 µM (inactive)
- Ki [4]: > 2.51 µM (inactive)
- Ki [5]: > 1.26 µM (inactive)
- Ki [6]: > 3.98 µM (inactive)
- Ki [7]: > 5.01 µM (inactive)
- Ki [8]: > 3.16 µM (inactive)
- Ki [9]: > 2.51 µM (inactive)
- Ki [10]: > 3.98 µM (inactive)
- Ki [11]: > 6.31 µM (inactive)
- Ki [12]: 1.58 µM (active)
- Ki [13]: > 3.16 µM (inactive)
- Ki [14]: > 2.51 µM (inactive)
- Ki (Activin receptor type-1): > 3.98 µM (inactive)
- Ki (LIM domain kinase 1): > 3.16 µM (inactive)
- Ki [15]: > 3.98 µM (inactive)
- Ki [16]: 5.01 µM (active)
- Ki [17]: > 3.16 µM (inactive)
- Ki [18]: 3.16 µM (active)
- Ki [19]: 126 nM (active)
- Ki [20]: > 3.98 µM (inactive)
- Ki [21]: > 3.16 µM (inactive)
- Ki [22]: > 3.98 µM (inactive)
- Ki [24]: > 3.98 µM (inactive)
- Ki [25]: > 3.16 µM (inactive)
- Ki [26]: > 3.98 µM (inactive)
- Ki [27]: > 2.51 µM (inactive)
- Ki [28]: > 3.98 µM (inactive)
- Ki [29]: > 3.98 µM (inactive)
- Ki [30]: > 2.51 µM (inactive)
- Ki [31]: > 3.98 µM (inactive)
- Ki [32]: > 5.01 µM (inactive)
- Ki [33]: > 6.31 µM (inactive)
- Ki [34]: > 3.98 µM (inactive)
- Ki [35]: 316 nM (active)
- Ki [36]: > 3.16 µM (inactive)
- Ki [37]: > 2.51 µM (inactive)
- Ki [38]: > 5.01 µM (inactive)
- Ki [39]: > 2.51 µM (inactive)
- Ki (Aurora kinase B): > 3.98 µM (inactive)
- Ki [40]: > 2.51 µM (inactive)
- Ki [41]: > 3.98 µM (inactive)
- Ki [42]: 2.51 µM (active)
- Ki [43]: 100 nM (active)
- Ki [44]: > 3.98 µM (inactive)
- Ki (Activated CDC42 kinase 1): > 3.98 µM (inactive)
- Ki [45]: > 3.16 µM (inactive)
- Ki [46]: 1.26 µM (active)
- Ki [47]: > 2.51 µM (inactive)
- Ki [48]: > 5.01 µM (inactive)
- Ki [49]: > 3.98 µM (inactive)
- Ki (Aurora kinase A): > 1.58 µM (inactive)
- Ki [50]: > 2.51 µM (inactive)
- Ki [51]: > 2.51 µM (inactive)
- Ki [52]: > 6.31 µM (inactive)
- Ki [53]: > 3.16 µM (inactive)
- Ki [54]: > 3.16 µM (inactive)
- Ki [55]: 398 nM (active)
- Ki [56]: > 3.98 µM (inactive)
Compound: COc1ccccc1CNC(=N)Nc1nccc(-c2cccs2)n1
- Ki [23]: > 5.01 µM (inactive)

Compound: O=C(/C=C/c1ccccc1[N+](=O)[O-])NCCc1ccc(F)cc1
- EC50 [57]: 25.8 µM (active)
